Assay results as given in ChEMBL document CHEMBL1135148, “Synthesis and profile of SCH351591, a novel PDE4 inhibitor” (Bioorg Med Chem Lett, 2002).
pIC50: −log10 of the molar value.

What was measured:
Phosphodiesterase 4 [1] = target: Phosphodiesterase 4 (Rattus norvegicus, UniProt P14270+P14646+P14644+P54748); assay: Inhibition of rolipram binding to PDE4 of rat brain
Phosphodiesterase 4 [2] = target: T1, Phosphodiesterase 4 (Homo sapiens, UniProt P27815+Q08499+Q07343+Q08493); assay: Relative inhibition of phosphodiesterase 4 and rolipram binding; assay type: protein assay
Phosphodiesterase 4 [3] = target: T1, Phosphodiesterase 4; assay: Inhibition of Phosphodiesterase 4 from human U937 cells; assay type: cell-based; conditions: u-937
[4] = Cmax in guinea pig after 3mg/kg oral dose; assay type: ADME, organism-based, Cavia porcellus; parameters: dose 3 mg/kg, route oral; conditions: in vivo
[5] = AUC in guinea pig after 3mg/kg oral dose; assay type: ADME, organism-based, Cavia porcellus, Plasma
[6] = AUC in rat after 3mg/kg oral dose; assay type: ADME, organism-based; conditions: plasma
[7] = Cmax in rat after 3mg/kg oral dose; assay type: ADME, organism-based; parameters: dose 3 mg/kg, route oral; conditions: in vivo
[8] = target: Phosphodiesterase 7 (Homo sapiens) (UniProt Q13946+Q9NP56); assay: Inhibition of Phosphodiesterase 7 from human T-lymphocyte cell line; conditions: concentration not given here
Chain of Phosphodiesterase 7 (Homo sapiens) (Q13946 whole entry, looked up): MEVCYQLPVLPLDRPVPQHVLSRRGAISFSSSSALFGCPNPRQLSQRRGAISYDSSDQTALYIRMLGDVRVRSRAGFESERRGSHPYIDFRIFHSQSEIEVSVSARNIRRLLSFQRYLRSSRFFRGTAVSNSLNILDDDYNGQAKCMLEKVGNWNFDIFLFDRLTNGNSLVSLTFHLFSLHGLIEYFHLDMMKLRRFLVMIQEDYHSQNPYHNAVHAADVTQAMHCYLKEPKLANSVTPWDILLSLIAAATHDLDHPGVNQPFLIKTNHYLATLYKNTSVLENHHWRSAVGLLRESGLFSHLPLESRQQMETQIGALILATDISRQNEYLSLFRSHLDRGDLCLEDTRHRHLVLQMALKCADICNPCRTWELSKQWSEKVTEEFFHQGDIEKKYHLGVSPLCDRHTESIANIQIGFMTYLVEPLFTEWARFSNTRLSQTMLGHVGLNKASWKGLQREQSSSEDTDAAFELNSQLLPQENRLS
Chain of Phosphodiesterase 7 (Homo sapiens) (Q9NP56 whole entry, looked up): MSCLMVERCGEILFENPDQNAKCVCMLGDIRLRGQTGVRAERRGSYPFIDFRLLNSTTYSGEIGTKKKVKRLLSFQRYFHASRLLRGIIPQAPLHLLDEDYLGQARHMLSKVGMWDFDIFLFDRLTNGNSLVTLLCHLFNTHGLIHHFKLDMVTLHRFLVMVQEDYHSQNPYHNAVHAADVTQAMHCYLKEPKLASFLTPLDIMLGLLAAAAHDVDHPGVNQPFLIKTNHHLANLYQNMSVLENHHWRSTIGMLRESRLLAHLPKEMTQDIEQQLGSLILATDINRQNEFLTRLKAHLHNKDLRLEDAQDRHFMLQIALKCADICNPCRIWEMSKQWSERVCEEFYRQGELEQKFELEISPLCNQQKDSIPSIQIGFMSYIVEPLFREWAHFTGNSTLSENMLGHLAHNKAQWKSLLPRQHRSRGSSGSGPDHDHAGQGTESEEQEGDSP

[9] = target: Phosphodiesterase 3 (Homo sapiens) (UniProt Q14432+Q13370); assay: Inhibition of Phosphodiesterase 3 from human platelets; conditions: concentration not given here
[10] = target: Phosphodiesterase 1 (Homo sapiens) (UniProt P54750+Q01064+Q14123); assay: Inhibition of recombinant Phosphodiesterase 1; assay type: protein assay; conditions: concentration not given here
[11] = target: cGMP-specific 3',5'-cyclic phosphodiesterase (Homo sapiens) (UniProt O76074); assay: Inhibition of Phosphodiesterase 5 from human platelets; conditions: concentration not given here
[12] = target: cGMP-dependent 3',5'-cyclic phosphodiesterase (Homo sapiens) (UniProt O00408); assay: Inhibition of Phosphodiesterase 2; conditions: concentration not given here
Chain of cGMP-dependent 3',5'-cyclic phosphodiesterase (Homo sapiens) (O00408 whole entry): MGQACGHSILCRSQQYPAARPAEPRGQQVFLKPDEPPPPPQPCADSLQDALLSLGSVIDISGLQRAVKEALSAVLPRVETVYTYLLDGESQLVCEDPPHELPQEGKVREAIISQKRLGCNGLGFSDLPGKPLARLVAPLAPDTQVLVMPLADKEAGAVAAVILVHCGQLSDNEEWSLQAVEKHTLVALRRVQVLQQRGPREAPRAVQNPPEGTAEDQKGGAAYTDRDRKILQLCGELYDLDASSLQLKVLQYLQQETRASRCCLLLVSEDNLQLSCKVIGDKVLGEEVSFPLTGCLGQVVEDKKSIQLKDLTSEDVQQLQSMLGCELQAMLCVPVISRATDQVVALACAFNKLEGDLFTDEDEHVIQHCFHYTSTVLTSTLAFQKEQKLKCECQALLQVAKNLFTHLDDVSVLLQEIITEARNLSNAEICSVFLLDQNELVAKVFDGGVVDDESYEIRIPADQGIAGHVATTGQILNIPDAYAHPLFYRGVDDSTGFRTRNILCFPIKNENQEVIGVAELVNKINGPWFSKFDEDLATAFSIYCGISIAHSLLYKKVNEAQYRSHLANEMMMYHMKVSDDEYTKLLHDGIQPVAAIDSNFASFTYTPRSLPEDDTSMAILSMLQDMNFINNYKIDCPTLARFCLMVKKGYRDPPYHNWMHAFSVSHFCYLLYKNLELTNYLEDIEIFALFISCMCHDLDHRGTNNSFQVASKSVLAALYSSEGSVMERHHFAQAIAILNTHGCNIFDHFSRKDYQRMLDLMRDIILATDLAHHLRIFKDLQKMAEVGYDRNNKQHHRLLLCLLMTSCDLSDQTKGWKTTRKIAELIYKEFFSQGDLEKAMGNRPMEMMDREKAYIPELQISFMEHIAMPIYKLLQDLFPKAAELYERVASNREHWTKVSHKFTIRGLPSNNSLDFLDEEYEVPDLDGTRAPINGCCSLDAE

Phosphodiesterase 4 [13] = target: T1, Phosphodiesterase 4; assay: Inhibition of Phosphodiesterase 4; assay type: protein assay

Structure (SMILES) | IC50 (Phosphodiesterase 4 [1]) | Ratio (Phosphodiesterase 4 [2]) | IC50 (Phosphodiesterase 4 [3]) | pIC50 (Phosphodiesterase 4 [1]) | other results
COc1ccc(C(=O)Nc2ccncc2Cl)c2ccc(C(F)(F)F)nc12 | 110 nM | 10 | 1120 nM |  | 
COc1ccc(C(=O)Nc2cc[n+]([O-])cc2Cl)c2ccc(C(F)(F)F)nc12 | 370 nM | 0.65 | 240 nM |  | 
COc1ccc(C(=O)Nc2c(Cl)cncc2Cl)c2ccc(C(F)(F)F)nc12 |  | 0.66 |  | 7.11 | Cmax [4]: 380 ng/mL; AUC ([5]; in vivo): 1174 ng·h/mL; AUC ([5]; plasma, read-out: AUC): 1170 ng·h/mL; AUC [6]: 6860 ng·h/mL
COc1ccc(C(=O)Nc2c(F)cncc2F)c2ccc(C(F)(F)F)nc12 | 38 nM | 0.94 | 35 nM |  | 
COc1ccc(C(=O)Nc2c(Cl)c[n+]([O-])cc2Cl)c2ccc(C(F)(F)F)nc12 [SCH-351591] | 150 nM | 0.4 | 60 nM |  | Cmax [4]: 1390 ng/mL; AUC ([5]; in vivo): 15757 ng·h/mL; AUC ([5]; plasma, read-out: AUC): 15800 ng·h/mL; Cmax [7]: 3060 ng/mL; AUC [6]: 50500 ng·h/mL; inhibition [8]: 10%; inhibition [9]: 31%; inhibition [10]: 15%; inhibition [11]: 5%; inhibition [12]: 0%; IC50 (Phosphodiesterase 4 [13]): 60 nM

Further lines, with some results ahead:

IC50 (Phosphodiesterase 4 [1]) | Ratio (Phosphodiesterase 4 [2]) | IC50 (Phosphodiesterase 4 [3]) | pIC50 (Phosphodiesterase 4 [1]) | Structure (SMILES) | other results
380 nM | 0.39 | 150 nM |  | COc1ccc(C(=O)Nc2c(C)c[n+]([O-])cc2C)c2ccc(C(F)(F)F)nc12 | 
58 nM | 2.1 | 120 nM |  | COc1ccc(C(=O)Nc2c(C)cncc2C)c2ccc(C(F)(F)F)nc12 | 
60 nM | 1.17 | 70 nM |  | COc1ccc(C(=O)Nc2c(F)c[n+]([O-])cc2F)c2ccc(C(F)(F)F)nc12 | 
